Laboratory results from patent publication US20240239790A1, “7-Morpholino-1,6-Naphthyridin-5-yl Derivatives and Pharmaceutical Compositions Thereof Useful as DNA-PK Inhibitor” (adMare Therapeutics Society, priority 2021, published 2024).
Read-outs that look alike come from different tables or passages of the source.

Columns and labels:
[1] = target: T1, DNA-PK phosphorylation at Serine 2056 (Homo sapiens, UniProt P78527); assay: Cellular Assay for Inhibition of DNA-PK Phosphorylation at Serine 2056 in FaDu cells (sandwich ELISA, neocarzinostatin); type: cell-based; conditions: pSer2056 DNA-PK, Table 3
T1 construct: FaDu cells were purchased from ATCC; host or cells: FaDu
Outline: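 pSer2056 and total DNA-PK were measured by sandwich ELISA in BCA-normalised FaDu lysates. Cells had 1 h compound exposure (0.3% DMSO), then 2 h with 1 μg/mL final neocarzinostatin. IC50 was fitted (variable slope) to % inhibition scaled against NCS-stimulated and DMSO-only controls.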

[2] = tested on: FaDu cell line; assay: Prodrug Activation in Hypoxic Stirred Tumour Cell Suspensions; conditions: 10 μM, 4 hours
[3] = tested on: pH2AX induction in HCT116 ATM-/- multicellular tumour spheroids; assay: Prodrug Radiation Sensitization in Multicellular Tumour Spheroids, inhibition of pH2AX induction following radiation; type: cell-based; conditions: Homo sapiens, HCT-116, 20 Gy
Outline: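 Endpoint: pH2AX (ser 139) or pDNA-PK (ser 2056) in cryosections fixed 1 or 2 h after 20 Gy, comparing oxygenated outer with hypoxic inner layers. Spheroids of ~0.5 mm (HCT116, FaDu; ATM-deficient cells used) held at 20% or 5% O2, 37 °C, stirred. Prodrug range 3.5 nM–10 μM.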

[4] = 5% O2, inner layers, read-out: Prodrug 5% O2 Inner layers EC50
[5] = 5% O2, outer layers, read-out: Prodrug 5% O2 Outer layers EC50
[6] = 20% O2, outer layers, read-out: Prodrug 20% O2 Outer layers EC50

IC50 [1] [µM]	Fraction of prodrug converted to active form, Hypoxic 0.2% O2 [2]	Fraction of prodrug converted to active form, Oxic 5% O2 [2]	Structure (SMILES)	EC50 [3, 4] [µM]	EC50 [3, 5] [µM]	EC50 [3, 6] [µM]
1 to 10	B (B is 0.05 to 0.15)	B (B is 0.05 to 0.15)	CN1CCC(Oc2cnc(N[C@H]3CC[C@@H](Oc4nc(N5CCOCC5)cc5ncc(N(Cc6cnn(C)c6[N+](=O)[O-])S(C)(=O)=O)cc45)CC3)nc2)C1 (stereo partly drawn) [LFA2062, N-[(1-methyl-5-nitro-pyrazol-4-yl)methyl]-N-[5-[4-[[5-(1-methylpyrrolidin-3-yl)oxypyrimidin-2-yl]amino]cyclohexoxy]-7-morpholino-1,6-naphthyridin-3-yl]methanesulfonamide]	0.01 to 0.5	0.5 to 1	1 to 10
10 to 30	A (A is 0.15 to 1)	B (B is 0.05 to 0.15)	CC(Oc1cnc2cc(N3CCOCC3)nc(O[C@H]3CC[C@@H](N(C)c4ncccn4)CC3)c2c1)c1cnc([N+](=O)[O-])n1C (stereo partly drawn) [LFA2063, N-methyl-N-[4-[[3-[1-(3-methyl-2-nitro-imidazol-4-yl)ethoxy]-7-morpholino-1,6-naphthyridin-5-yl]oxy]cyclohexyl]pyrimidin-2-amine]	0.01 to 0.5	1 to 10	1 to 10
1 to 10	B (B is 0.05 to 0.15)	C (C is 0.02 to 0.05)	CC(c1cnn(C)c1[N+](=O)[O-])N(c1cnc2cc(N3CCOCC3)nc(O[C@H]3CC[C@@H](Nc4ncc(OC5CCN(C)C5)cn4)CC3)c2c1)S(C)(=O)=O (stereo partly drawn) [LFA2064, N-[1-(1-methyl-5-nitro-pyrazol-4-yl)ethyl]-N-[5-[4-[[5-(1-methylpyrrolidin-3-yl)oxypyrimidin-2-yl]amino]cyclohexoxy]-7-morpholino-1,6-naphthyridin-3-yl]methanesulfonamide]	0.01 to 0.5	1 to 10	1 to 10
10 to 30	A (A is 0.15 to 1)	C (C is 0.02 to 0.05)	CN1CCN(c2cnc(N[C@H]3CC[C@@H](Oc4nc(N5CCOCC5)cc5ncc(OCc6cnc([N+](=O)[O-])n6C)cc45)CC3)nc2)CC1 [LFA2065, N-[4-[[3-[(3-methyl-2-nitro-imidazol-4-yl)methoxy]-7-morpholino-1,6-naphthyridin-5-yl]oxy]cyclohexyl]-5-(4-methylpiperazin-1-yl)pyrimidin-2-amine]	0.01 to 0.5	1 to 10	1 to 10
10 to 30	A (A is 0.15 to 1)	B (B is 0.05 to 0.15)	CC(Oc1cnc2cc(N3CCOCC3)nc(O[C@H]3CC[C@@H](Nc4ncc(N5CCN(C)CC5)cn4)CC3)c2c1)c1cnc([N+](=O)[O-])n1C (stereo partly drawn) [LFA2066, N-[4-[[3-[1-(3-methyl-2-nitro-imidazol-4-yl)ethoxy]-7-morpholino-1,6-naphthyridin-5-yl]oxy]cyclohexyl]-5-(4-methylpiperazin-1-yl)pyrimidin-2-amine]	0.01 to 0.5	1 to 10	1 to 10
1 to 10	B (B is 0.05 to 0.15)	B (B is 0.05 to 0.15)	CC(c1cnn(C)c1[N+](=O)[O-])N(c1cnc2cc(N3CCOCC3)nc(O[C@H]3CC[C@@H](Nc4ncc(N5CCN(C)CC5)cn4)CC3)c2c1)S(C)(=O)=O (stereo partly drawn) [LFA2067, N-[1-(1-methyl-5-nitro-pyrazol-4-yl)ethyl]-N-[5-[4-[[5-(4-methylpiperazin-1-yl)pyrimidin-2-yl]amino]cyclohexoxy]-7-morpholino-1,6-naphthyridin-3-yl]methanesulfonamide]	0.01 to 0.5	0.5 to 1	1 to 10
1 to 10	B (B is 0.05 to 0.15)	D (D is 0 to 0.02)	CC(c1cnc([N+](=O)[O-])n1C)N(c1cnc2cc(N3CCOCC3)nc(O[C@H]3CC[C@@H](Nc4ncc(OC5CCN(C)C5)cn4)CC3)c2c1)S(C)(=O)=O (stereo partly drawn) [LFA2068, N-[1-(3-methyl-2-nitro-imidazol-4-yl)ethyl]-N-[5-[4-[[5-(1-methylpyrrolidin-3-yl)oxypyrimidin-2-yl]amino]cyclohexoxy]-7-morpholino-1,6-naphthyridin-3-yl]methanesulfonamide]	0.5 to 1	1 to 10	10 to 100
10 to 30	A (A is 0.15 to 1)	C (C is 0.02 to 0.05)	Cn1c(COc2cnc3cc(N4CCOCC4)nc(O[C@H]4CC[C@@H](Nc5ncc(OCCN6CCOCC6)cn5)CC4)c3c2)cnc1[N+](=O)[O-] [LFA2069, N-[4-[[3-[(3-methyl-2-nitro-imidazol-4-yl)methoxy]-7-morpholino-1,6-naphthyridin-5-yl]oxy]cyclohexyl]-5-(2-morpholinoethoxy)pyrimidin-2-amine]	0.01 to 0.5	1 to 10	1 to 10
10 to 30	B (B is 0.05 to 0.15)	D (D is 0 to 0.02)	CC(c1cnc([N+](=O)[O-])n1C)N(c1cnc2cc(N3CCOCC3)nc(O[C@H]3CC[C@@H](Nc4ncc(N5CCN(C)CC5)cn4)CC3)c2c1)S(C)(=O)=O (stereo partly drawn) [LFA2070, N-[1-(3-methyl-2-nitro-imidazol-4-yl)ethyl]-N-[5-[4-[[5-(4-methylpiperazin-1-yl)pyrimidin-2-yl]amino]cyclohexoxy]-7-morpholino-1,6-naphthyridin-3-yl]methanesulfonamide]	0.01 to 0.5	1 to 10	10 to 100
10 to 30	A (A is 0.15 to 1)	B (B is 0.05 to 0.15)	Cn1c(COc2cnc3cc(N4CCOCC4)nc(O[C@H]4CC[C@@H](N(C)c5ncccn5)CC4)c3c2)cnc1[N+](=O)[O-] [LFA2071, N-methyl-N-[4-[[3-[(3-methyl-2-nitro-imidazol-4-yl)methoxy]-7-morpholino-1,6-naphthyridin-5-yl]oxy]cyclohexyl]pyrimidin-2-amine]	0.01 to 0.5	1 to 10	1 to 10
1 to 10	B (B is 0.05 to 0.15)	B (B is 0.05 to 0.15)	CN1CCN(c2cnc(N[C@H]3CC[C@@H](Oc4nc(N5CCOCC5)cc5ncc(N(Cc6cnn(C)c6[N+](=O)[O-])S(C)(=O)=O)cc45)CC3)nc2)CC1 [LFA2072, N-[(1-methyl-5-nitro-pyrazol-4-yl)methyl]-N-[5-[4-[[5-(4-methylpiperazin-1-yl)pyrimidin-2-yl]amino]cyclohexoxy]-7-morpholino-1,6-naphthyridin-3-yl]methanesulfonamide]	0.01 to 0.5	0.01 to 0.5	1 to 10
1 to 10	B (B is 0.05 to 0.15)	C (C is 0.02 to 0.05)	CC(c1cnn(C)c1[N+](=O)[O-])N(c1cnc2cc(N3CCOCC3)nc(O[C@H]3CC[C@@H](Nc4ncc(OCCN(C)C)cn4)CC3)c2c1)S(C)(=O)=O (stereo partly drawn) [LFA2073, N-[5-[4-[[5-[2-(dimethylamino)ethoxy]pyrimidin-2-yl]amino]cyclohexoxy]-7-morpholino-1,6-naphthyridin-3-yl]-N-[1-(1-methyl-5-nitro-pyrazol-4-yl)ethyl]methanesulfonamide]	0.01 to 0.5	1 to 10	1 to 10
1 to 10	B (B is 0.05 to 0.15)	C (C is 0.02 to 0.05)	CC(c1cnc([N+](=O)[O-])n1C)N(c1cnc2cc(N3CCOCC3)nc(O[C@H]3CC[C@@H](Nc4ncc(CCN5CCOCC5)cn4)CC3)c2c1)S(C)(=O)=O (stereo partly drawn) [LFA2074, N-[1-(3-methyl-2-nitro-imidazol-4-yl)ethyl]-N-[7-morpholino-5-[4-[[5-(2-morpholinoethyl)pyrimidin-2-yl]amino]cyclohexoxy]-1,6-naphthyridin-3-yl]methanesulfonamide]	0.01 to 0.5	0.5 to 1	1 to 10
1 to 10	B (B is 0.05 to 0.15)	B (B is 0.05 to 0.15)	CN(C)CCOc1cnc(N[C@H]2CC[C@@H](Oc3nc(N4CCOCC4)cc4ncc(N(Cc5cnn(C)c5[N+](=O)[O-])S(C)(=O)=O)cc34)CC2)nc1 [LFA2075, N-[5-[4-[[5-[2-(dimethylamino)ethoxy]pyrimidin-2-yl]amino]cyclohexoxy]-7-morpholino-1,6-naphthyridin-3-yl]-N-[(1-methyl-5-nitro-pyrazol-4-yl)methyl]methanesulfonamide]	0.01 to 0.5	0.5 to 1	1 to 10
